Source: US9573913B2, “Cathepsin cysteine protease inhibitors” (Merck Sharp & Dohme Corp., priority 2013, dated 2017)

Experiments:
human cathepsin K = human cathepsin K (UniProt P43236); test: Cathepsin K Assay (hrbCat K); type: biochemical; conditions: Z-Leu-Arg-AMC substrate, pH 5.5, 15 min preincubation; read-out: hrbCat K (IP (nM))
Protocol: Cathepsin K Assay (hrbCat K)
(§1) Then 0.5 μL of DMSO from each dilution were added to 18.75 μL of assay buffer (MES, 50 mM (pH 5.5); EDTA, 2.5 mM; DTT, 2.5 mM and 10% DMSO) containing human cathepsin K (0.4 nM) in assay buffer solution. The assay solutions were mixed for 5-10 seconds on a shaker plate and incubated for 15 minutes at room temperature. Z-Leu-Arg-AMC (8 μM) in 6.25 μL of assay buffer was added to the assay solutions. Hydrolysis of the coumarin leaving group (AMC) was followed by spectrofluorometry (Exλ=360 nm; Emλ=460 nm) for 30 minutes. Percent of inhibition were calculated by fitting experimental values to standard mathematical model for dose response curve.

human cathepsin F = target: T1, human cathepsin F (Homo sapiens, UniProt Q9UBX1); test: Cathepsin F assay (hCat F); type: biochemical; conditions: Z-Phe-Arg-AMC substrate, pH 5.5, 15 min preincubation; read-out: hCat F (IP (nM))
T1 sequence (Q9UBX1 271-484): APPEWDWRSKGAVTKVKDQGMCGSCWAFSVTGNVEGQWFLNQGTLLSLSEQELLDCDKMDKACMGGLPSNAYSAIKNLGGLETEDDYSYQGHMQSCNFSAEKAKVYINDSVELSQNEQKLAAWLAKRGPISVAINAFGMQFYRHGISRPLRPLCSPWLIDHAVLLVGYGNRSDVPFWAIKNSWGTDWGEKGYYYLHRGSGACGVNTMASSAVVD
Protocol: Cathepsin F assay (hCat F)
as §1, with “Serial dilutions (1/3) from 500 μM down to 0.025 μM of test compounds were prepared in dimethyl sulfoxide (DMSO). Then” for “Then”, “F (10” for “K (0.4”, “Z-Phe-Arg-AMC” for “Z-Leu-Arg-AMC”, “20” for “30”

Row | IC50 (human cathepsin K) [nM] | IC50 (human cathepsin F) [nM] | SMILES
1 | 2.8 | 3330 | CC(Oc1ncccc1-c1nc([C@@H]2CCCC[C@H]2C(=O)NC2(C#N)CC2)c(-c2ccc(N3CCS(=O)(=O)CC3)cc2)s1)C(F)(F)F (mixture of isomers) [Example 134, (1R,2R)-N-(1-cyanocyclopropyl)-2-(5-(4-(1,1-dioxidothiomorpho-lino)phenyl)-2-(2-(((S and R)-1,1,1-trifluoropropan-2-yl)oxy)pyridin-3-yl)thiazol-4-yl)cyclohexane-carboxamide]
2 | 1.2 | 3330 | CC(Oc1ccc(-c2nc([C@@H]3CCCC[C@H]3C(=O)NC3(C#N)CC3)c(-c3ccc(N4CCS(=O)(=O)CC4)cc3)s2)cn1)C(F)(F)F (mixture of isomers) [Example 137, (1R,2R)-N-(1-cyanocyclopropyl)-2-(5-(4-(1,1-dioxidothiomorpho-lino)phenyl)-2-(6-(((S and R)-1,1,1-trifluoropropan-2-yl)oxy)pyridin-3-yl)thiazol-4-yl)cyclohexane-carboxamide]
3 | 4.5 | 1000 | N#CC1(NC(=O)[C@@H]2CCCC[C@H]2c2nc(C3CCOC3)sc2-c2ccc(N3CCS(=O)(=O)CC3)cc2)CC1 (mixture of isomers) [Example 147, (1R,2R)-N-(1-cyanocyclopropyl)-2-(5-(4-(1,1-dioxidothiomorpho-lino)phenyl)-2-((R and S)-tetrahydrofuran-3-yl)thiazol-4-yl)cyclohexane-carboxamide]
4 | 2.6 | 1930 | N#CC1(NC(=O)[C@@H]2CCCC[C@H]2c2nc(C3CCCCO3)sc2-c2ccc(N3CCS(=O)(=O)CC3)cc2)CC1 (mixture of isomers) [Example 148, (1R,2R)-N-(1-cyanocyclopropyl)-2-(5-(4-(1,1-dioxidothiomorpho-lino)phenyl)-2-((R and S)-tetrahydro-2H-pyran-2-yl)thiazol-4-yl)cyclohexane-carboxamide]
5 | 4.5 | 1000 | N#CC1(NC(=O)[C@@H]2CCCC[C@H]2c2nc(C3CCC(F)(F)C3)sc2-c2ccc(N3CCS(=O)(=O)CC3)cc2)CC1 (mixture of isomers) [Example 154, (1R,2R)-N-(1-cyanocyclopropyl)-2-(2-((R and S)-3,3-difluorocyclopentyl)-5-(4-(1,1-dioxidothiomorpho-lino)phenyl)thiazol-4-yl)cyclohexane-carboxamide]
6 | 2.7 | 49 | CS(=O)(=O)c1ccc(-c2oc(-c3ccccc3)nc2C2CCC(F)(F)CC2C(=O)NCC#N)cc1 (racemic) [Example 162, (1R,2R and 1S,2S)-N-(cyanomethyl)-5,5-difluoro-2-(5-(4-(methylsulfonyl)phenyl)-2-phenyloxazol-4-yl)cyclohexane-carboxamide]
7 | 2.9 | 26 | CS(=O)(=O)c1ccc(-c2oc(-c3ccc(F)cc3)nc2C2CCC(F)(F)CC2C(=O)NCC#N)cc1 (racemic) [Example 163, (1R,2R and 1S,2S)-N-(cyanomethyl)-5,5-difluoro-2-(2-(4-fluorophenyl)-5-(4-(methylsulfonyl)phenyl)oxazol-4-yl)cyclohexane-carboxamide]
8 | 2.4 | 60 | N#CC(NC(=O)[C@@H]1CCCC[C@H]1c1nc(-c2ccc(F)cn2)sc1-c1ccc(N2CCS(=O)(=O)CC2)cc1)C(F)(F)F (mixture of isomers) [Example 215, (1R,2R)-N-((S and R)-1-cyano-2,2,2-trifluoroethyl)-2-(5-(4-(1,1-dioxidothiomorpho-lino)phenyl)-2-(5-fluoropyridin-2-yl)thiazol-4-yl)cyclohexane-carboxamide]
9 | 5.1 | 5390 | N#CC1(NC(=O)[C@@H]2CCCC[C@H]2c2nc(C(O)C(F)(F)F)sc2-c2ccc(N3CCS(=O)(=O)CC3)cc2)CC1 (mixture of isomers) [Example 228, (1R,2R)-N-(1-cyanocyclopropyl)-2-(5-(4-(1,1-dioxidothiomorpho-lino)phenyl)-2-((R and S)-2,2,2-trifluoro-1-hydroxyethyl)thia-zol-4-yl)cyclohexane-carboxamide]
10 | 161 |  | CC1CC1(C#N)NC(=O)[C@@H]1CCCC[C@H]1c1nc(-c2ccc(F)cn2)sc1-c1ccc(N2CCS(=O)(=O)CC2)cc1 (single isomer, unassigned) [Example 203, (1R,2R)-N-((1R,2S or 1R,2R or 1S,2S or 1S,2R)-1-cyano-2-methylcyclopropyl)-2-(5-(4-(1,1-dioxidothiomorpho-lino)phenyl)-2-(5-fluoropyridin-2-yl)thiazol-4-yl)cyclohexane-carboxamide]
11 |  | ≥ 10000 | CC(C)(O)C(C#N)NC(=O)[C@@H]1CCCC[C@H]1c1nc(-c2ccc(F)cn2)sc1-c1ccc(N2CCS(=O)(=O)CC2)cc1 (single isomer, unassigned) [Example 226, (1R,2R)-N-((S or R)-1-cyano-2-hydroxy-2-methylpropyl)-2-(5-(4-(1,1-dioxidothiomorpho-lino)phenyl)-2-(5-fluoropyridin-2-yl)thiazol-4-yl)cyclohexane-carboxamide]
12 | 59.5 |  | CC(C)(O)C(C#N)NC(=O)[C@@H]1CCCC[C@H]1c1nc(-c2ccc(F)cn2)sc1-c1ccc(N2CCS(=O)(=O)CC2)cc1 (single isomer, unassigned) [Example 227, (1R,2R)-N-((R or S)-1-cyano-2-hydroxy-2-methylpropyl)-2-(5-(4-(1,1-dioxidothiomorpho-lino)phenyl)-2-(5-fluoropyridin-2-yl)thiazol-4-yl)cyclohexane-carboxamide]
13 | 4.2 |  | N#CC1(NC(=O)[C@@H]2C[C@@H](F)CC[C@H]2c2nc(C3CC(F)C3)sc2-c2ccc(N3CCS(=O)(=O)CC3)cc2)CC1 (single isomer, unassigned) [Example 235, (1R,2R,5S)-N-(1-cyanocyclopropyl)-2-(5-(4-(1,1-dioxidothiomorpho-lino)phenyl)-2-((1R,3R or 1S,3S)-3-fluorocyclobutyl)thiazol-4-yl)-5-fluorocyclohexane-carboxamide]
14 | 1.7 |  | N#CC1(NC(=O)[C@@H]2CCC(F)(F)C[C@H]2c2nc(-c3cncc(F)c3)sc2-c2ccc(N3CCS(=O)(=O)CC3)cc2)CC1 [Example 108, (1R,2R)-N-(1-cyanocyclopropyl)-2-(5-(4-(1,1-dioxidothiomorpho-lino)phenyl)-2-(5-fluoropyridin-3-yl)thiazol-4-yl)-4,4-difluorocyclohexane-carboxamide]
15 | 66.7 |  | CC(C)(C#N)NC(=O)[C@@H]1C[C@@H](F)CC[C@H]1c1nc(-c2ccc(F)cn2)sc1-c1ccc(N2CCS(=O)(=O)CC2)cc1 [Example 140, (1R,2R,5S)-N-(2-cyanopropan-2-yl)-2-(5-(4-(1,1-dioxidothiomorpho-lino)phenyl)-2-(5-fluoropyridin-2-yl)thiazol-4-yl)-5-fluorocyclohexane-carboxamide]
16 | 4.2 |  | N#CC1(NC(=O)[C@@H]2CCC(F)(F)C[C@H]2c2nc(-c3cncc(F)c3)sc2-c2ccc(N3CCS(=O)(=O)CC3)cc2)CC1 [Example 218, (1R,2R)-N-(1-cyanocyclopropyl)-2-(5-(4-(1,1-dioxidothiomorpho-lino)phenyl)-2-(5-fluoropyridin-3-yl)thiazol-4-yl)-4,4-difluorocyclohexane-carboxamide]

Row | SMILES | IC50 (human cathepsin K) [nM] | IC50 (human cathepsin F) [nM]
17 | Cc1ncc(-c2nc([C@@H]3CCCC[C@H]3C(=O)NC3(C#N)CC3)c(-c3ccc(N4CCS(=O)(=O)CC4)cc3)s2)s1 [Example 52, (1R,2R)-N-(1-cyanocyclopropyl)-2-(5-(4-(1,1-dioxidothiomorpho-lino)phenyl)-2′-methyl-[2,5′-bithiazol]-4-yl)cyclohexane-carboxamide] | 2.3 | 
